Measured values published in US11278550B2, “Compositions and methods for the treatment of Prader-Willi syndrome” (Duke University, priority 2016, dated 2022).
Entries after “also recorded” stand apart in the source; their conditions may differ.

Assays:
[1] = test system: human PWS fibroblast cells; experiment: Cell viability (CellTox Green Cytotoxicity Assay); type: cell-based; settings: 1-4 μM, 72 hours
Experimental: Cell viability was measured by fluorescence using CellTox™ Green Cytotoxicity Assay (Promega, cat. no. G8741) according to the manufacturer's instructions.

PWS-IC [2] = experiment: Bisulfite genomic sequencing of PWS-IC, human PWS cells; type: cell-based
Experimental: (§1) Genomic DNA was isolated from human PWS fibroblasts or mouse tissues. DNA (1 μg) was then treated by bisulfite using the Epi-Tect bisulfite kit (Qiagen), and 125 ng input DNA was used per PCR amplification. PCR products were sub-cloned into pGEM-T easy vector (Promega) and an average of 15 clones were sequenced. DNA sequencing results were analyzed using BISMA web-based analysis platform with a setting for individual clones with <95% bisulfite conversion and <90% sequence identity to be excluded in the analysis.

m+/pΔS-U and WT mice = experiment: Toxicity evaluation in mice (body weight, neurological screening, blood, histopathology); type: in vivo, mouse
Experimental: Brain, liver, lung, kidney and heart tissues from 3-month-old mice were fixed in 10% neutral buffered formalin (NBF: 10 ml of Formalin (37% stock), 90 ml of deionized water, 4 g/liter of NaH2PO4, 6.5 g/liter Na2HPO4), embedded in paraffin, sectioned at 5 μm, stained with hematoxylin and eosin, and images examined by a board-certified toxicological pathologist.
Blood was collected from 3-month-old mice into microcontainers or hematology assay tubes using jugular vein bleeding puncture. A serum metabolic panel was obtained using the Heska Dry Chem analyzer (Cuattro Veterinary USA). The metabolic panel contained chem and electrolyte, liver and kidney functions. For hematology analysis, we tested whole blood using Procyte (IDEXX).
General health of mice was evaluated using a modified version of standard test battery for behavioral phenotyping (see 57). Observational assessment included the evaluation of body weight, body core temperature, overt behavioral signs (coat appearance, body posture and secretary signs) and sensory functions (visual ability, audition, tactile percep- tion and vestibular function). Table 6 indicates the mouse sex and age information.

PWS-IC [3] = experiment: Bisulfite genomic sequencing of PWS-IC, liver of PWS mice; type: in vivo; settings: livers from PWS mouse models
Experimental: as §1

several cell lines = settings: cited from earlier work

| SMILES | cytotoxicity [1] | DNA methylation of the PWS-IC (PWS-IC [2]) | loss of body weight (m+/pΔS-U and WT mice; WT mice) | general health and neurological screening (m+/pΔS-U and WT mice; blinded) | histopathological analyses (m+/pΔS-U and WT mice; brain, liver, kidney, lung and heart, P90 / 3 months) | hematological analysis (liver and kidney functions, lipid and protein metabolism) (m+/pΔS-U and WT mice; treated m+/pΔS-U and WT mice) | DNA methylation of the PWS-IC (PWS-IC [3]) | cell toxicity (several cell lines) |
| --- | --- | --- | --- | --- | --- | --- | --- | --- |
| COc1cc2c(NC3CCN(C(C)C)CC3)nc(C3CCCCC3)nc2cc1OCCCN1CCCC1 [UNC0638] | minimal cytotoxicity | did not significantly alter |  |  |  |  |  |  |
| COc1cc2c(NC3CCN(C(C)C)CC3)nc(N3CCC(F)(F)CC3)nc2cc1OCCCN1CCCC1 [UNC0642] |  |  | not observed | did not reveal any substantial abnormalities | did not reveal any abnormalities; also recorded: no significant compound related lesions | within normal ranges | did not significantly alter | low cell toxicity |
